From the supplement of paper PMC10307832

Legend:
Experiment in all cases: relative viability (nuclei count vs DMSO), 5 days (fraction); higher = more cells survive
[1] = compound: C[C@@H](N)c1ccc(C(=O)Nc2ccnc3[nH]ccc23)cc1 + O=C(CCCCCCC(=O)Nc1ccccc1)NO [Vorinostat] (partner 1 µM)
Outline: (§1)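 Nuclei were stained with Hoechst during a one-step fixation (final 0.05% Triton X-100, 1% formaldehyde, 1 ug/ml Hoechst) carried out 5 days after dosing, then counted on 4× images. The cells, lung cancer lines in 1536-well plates, had been dosed by pin tool the day after seeding with one drug alone or a fixed anchor-drug dose plus five library-drug doses (not always all listed) in √10 steps. Relative viability is the nuclei count in treated wells divided by that in vehicle wells, and each value is the median of duplicate plates.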

[2] = compound: C1CNCCC1C2=CC(=NN2)C3=CC=NC=C3 + O=C(CCCCCCC(=O)Nc1ccccc1)NO [Vorinostat] (partner 1 µM)
Outline: as §1

[3] = compound: C1CNCCC1C2=CC(=NN2)C3=CC=NC=C3 + O=C(c1cc(Cc2n[nH]c(=O)c3ccccc23)ccc1F)N1CCN(C(=O)C2CC2)CC1 [Olaparib] (partner 8 µM)
Outline: as §1

[4] = compound: C1CNCCC1C2=CC(=NN2)C3=CC=NC=C3 + NC(=O)Nc1cc(-c2cccc(F)c2)sc1C(=O)N[C@H]1CCCNC1 [AZD7762] (partner 0.2 µM)
Outline: as §1

| Cell Line | relative viability ([1]; first compound 0.04 µM) | relative viability ([1]; first compound 0.1265 µM) | relative viability ([1]; first compound 0.4 µM) | relative viability ([1]; first compound 1.265 µM) | relative viability ([1]; first compound 4 µM) | relative viability ([2]; first compound 0.08 µM) | relative viability ([2]; first compound 0.8 µM) | relative viability ([2]; first compound 2.53 µM) | relative viability ([2]; first compound 8 µM) | relative viability ([3]; first compound 0.08 µM) | relative viability ([3]; first compound 0.8 µM) | relative viability ([3]; first compound 2.53 µM) | relative viability ([3]; first compound 8 µM) | relative viability ([4]; first compound 0.08 µM) | relative viability ([4]; first compound 0.8 µM) | relative viability ([4]; first compound 2.53 µM) | relative viability ([4]; first compound 8 µM) |
| --- | --- | --- | --- | --- | --- | --- | --- | --- | --- | --- | --- | --- | --- | --- | --- | --- | --- |
| NCI-H727 | 1.6 | 1.22 | 1.52 | 1.57 | 1.49 | 1.25 | 1.08 | 1.29 | 1.18 | 0.76 | 0.798 | 0.669 | 0.69 | 0.658 | 0.474 | 0.72 | 0.773 |
| HARA | 0.521 | 0.646 | 0.604 | 0.403 | 0.26 | 0.669 | 0.62 | 0.527 | 0.481 | 0.762 | 1.27 | 1.21 | 1.11 | 0.328 | 0.306 | 0.295 | 0.258 |
| NCI-H2228 | 0.832 | 0.576 | 0.638 | 0.976 | 0.56 | 0.537 | 0.589 | 0.667 | 0.587 | 0.617 | 0.747 | 0.575 | 0.549 |  |  |  |  |
| LCLC-97TM1 | 0.835 | 0.374 | 0.69 | 0.0878 | 0.779 | 0.749 | 0.701 | 0.909 | 0.653 | 0.341 | 0.399 | 0.429 | 0.326 | 0.27 | 0.239 | 0.248 | 0.332 |
| LC-2-ad | 0.497 | 0.736 | 0.713 | 0.476 | 0.369 | 0.723 | 0.757 | 0.741 | 0.658 | 0.719 | 0.781 | 0.664 | 0.694 | 0.84 | 0.859 | 0.872 | 0.87 |
| SK-LU-1 | 0.776 | 0.767 | 0.696 | 0.671 | 0.522 | 0.783 | 0.766 | 0.857 | 0.729 | 0.437 | 0.425 | 0.467 | 0.439 |  |  |  |  |
| EKVX | 0.672 | 0.672 | 0.83 | 0.44 | 0.517 | 0.78 | 0.82 | 0.861 | 0.737 | 0.882 |  | 1.05 | 0.755 | 0.754 |  | 0.704 | 0.701 |
| HCC-827 |  | 0.813 | 1.04 | 0.972 | 0.701 | 0.698 | 0.861 | 1.03 | 0.912 | 0.597 | 0.0303 | 0.665 | 0.743 | 0.248 | 0.155 | 0.271 | 0.223 |
| NCI-H650 |  | 0.507 | 0.325 |  | 0.381 | 0.433 | 0.437 | 0.434 | 0.546 | 0.4 | 0.424 | 0.376 | 0.405 | 0.853 | 1.07 | 1.09 | 0.949 |
| CAL-12T | 0.863 | 0.771 | 0.914 | 0.876 | 0.897 | 0.693 | 0.932 | 0.964 | 0.981 | 0.676 | 0.665 | 0.753 | 0.719 | 0.701 | 0.669 | 0.601 | 0.66 |
| NCI-H2342 | 0.772 | 0.744 | 0.704 | 0.869 | 0.731 | 0.706 | 0.71 | 0.774 | 0.809 | 0.419 | 0.388 | 0.486 | 0.491 | 0.572 | 0.351 | 0.57 | 0.591 |
| SW 900 | 0.716 | 0.54 | 0.738 | 0.884 | 0.877 | 0.521 |  | 0.684 | 0.563 | 1.02 |  | 0.868 | 0.861 | 0.687 |  | 0.718 | 0.738 |
| IA-LM | 1.23 | 0.835 | 1.33 | 1.37 | 1.23 | 0.974 | 1.06 | 0.95 | 1.03 | 1.02 | 0.916 | 0.87 | 0.846 |  |  |  |  |
| EPLC-272H | 0.548 | 0.567 | 0.497 | 0.352 | 0.351 | 0.618 | 0.501 | 0.452 | 0.468 | 0.973 | 0.761 | 0.935 | 0.801 | 0.18 | 0.261 | 0.26 | 0.212 |
| A-427 | 0.77 | 0.851 | 0.81 | 0.746 | 0.772 | 0.842 | 0.982 | 0.891 | 0.762 | 0.589 | 0.775 | 0.752 | 0.716 | 0.752 | 0.802 | 0.92 | 0.774 |
| NCI-H647 | 0.472 | 0.623 | 0.551 | 0.613 | 0.463 | 0.572 | 0.739 | 0.632 | 0.635 | 0.556 | 0.661 | 0.511 | 0.552 | 0.409 | 0.43 | 0.383 | 0.431 |
| NCI-H1975 | 0.734 | 0.649 | 0.667 | 0.609 | 0.584 | 0.74 | 0.758 | 0.702 | 0.685 | 0.87 | 0.894 | 0.936 | 0.778 | 0.758 | 0.599 | 0.742 | 0.679 |
| NCI-H358 | 0.692 | 0.781 | 0.784 | 0.642 | 0.614 | 0.492 | 0.654 | 0.907 | 0.617 | 0.48 | 0.691 | 0.648 | 0.525 | 0.487 | 0.626 | 0.553 | 0.54 |
| PC-3 [JPC-3] | 0.803 | 0.77 | 0.85 | 0.836 | 0.725 | 0.94 | 0.797 | 0.881 | 0.834 | 1.09 | 1.24 | 1.11 | 1.15 | 0.879 | 0.817 | 0.689 | 0.936 |

| Cell Line | relative viability ([1]; first compound 0.04 µM) | relative viability ([1]; first compound 0.1265 µM) | relative viability ([1]; first compound 0.4 µM) | relative viability ([1]; first compound 1.265 µM) | relative viability ([1]; first compound 4 µM) | relative viability ([2]; first compound 0.08 µM) | relative viability ([2]; first compound 0.8 µM) | relative viability ([2]; first compound 2.53 µM) | relative viability ([2]; first compound 8 µM) | relative viability ([3]; first compound 0.08 µM) | relative viability ([3]; first compound 0.8 µM) | relative viability ([3]; first compound 2.53 µM) | relative viability ([3]; first compound 8 µM) | relative viability ([4]; first compound 0.08 µM) | relative viability ([4]; first compound 0.8 µM) | relative viability ([4]; first compound 2.53 µM) | relative viability ([4]; first compound 8 µM) |
| --- | --- | --- | --- | --- | --- | --- | --- | --- | --- | --- | --- | --- | --- | --- | --- | --- | --- |
| NCI-H1792 |  |  |  |  |  |  |  |  |  | 0.504 | 0.385 | 0.471 | 0.353 | 0.616 | 0.675 | 0.632 | 0.717 |
| NCI-H596 | 0.596 | 0.517 | 0.583 | 0.654 | 0.582 | 0.73 | 0.417 | 0.638 | 0.589 | 0.733 | 0.709 | 0.687 | 0.72 | 1.1 | 1.31 | 1.12 | 1.39 |
| RERF-LC-KJ | 0.737 | 0.736 | 0.838 | 0.652 | 0.74 | 0.553 | 0.727 | 0.862 | 0.712 | 0.849 | 0.873 | 0.945 | 0.954 | 0.905 | 1.04 | 1.11 | 1.01 |
| NCI-H322M | 1.21 | 1.04 | 1.11 | 1.05 | 1.39 | 0.95 | 0.854 | 0.99 | 0.953 | 0.73 | 0.716 | 0.844 | 0.923 | 0.582 | 0.597 | 0.627 | 0.622 |
| COR-L 105 | 1.04 | 0.793 | 0.998 | 0.76 | 0.544 | 0.805 | 0.916 | 1.07 | 0.964 | 0.7 | 0.721 | 0.675 | 0.746 |  |  |  |  |
| NCI-H1993 | 0.772 | 1.02 |  | 0.811 | 0.718 | 0.883 | 0.722 | 0.767 | 1.03 | 0.937 | 0.918 | 1.02 | 1.21 | 0.874 | 0.631 | 0.858 | 0.681 |
| NCI-H2023 | 0.645 | 0.621 | 0.863 |  | 0.819 | 0.262 | 0.589 | 0.767 | 0.602 | 0.354 | 0.494 | 0.488 | 0.538 |  |  |  |  |
| EBC-1 |  |  |  |  |  |  |  |  |  | 0.778 | 0.722 | 0.804 | 0.741 |  |  |  |  |
| NCI-H520 | 0.862 | 0.757 | 0.813 | 0.714 | 0.693 | 0.677 | 0.777 | 0.746 | 0.7 | 0.332 | 0.356 | 0.381 | 0.266 |  |  |  |  |
| NCI-H1650 | 0.7 | 0.663 | 0.675 | 0.663 | 0.648 | 0.46 | 0.597 | 0.804 | 0.489 | 0.613 | 0.948 | 0.795 | 0.69 |  |  |  |  |
| SK-MES-1 | 1.04 | 1.05 | 1.11 | 1.2 | 1.17 | 0.979 | 0.978 | 1.22 | 1.07 | 0.553 | 0.849 | 0.714 | 0.684 |  |  |  |  |
| NCI-H1299 |  |  |  |  |  |  |  |  |  | 1.03 | 0.97 | 0.946 | 0.91 |  |  |  |  |
| A549 |  |  |  |  |  |  |  |  |  | 0.345 | 0.303 | 0.435 | 0.367 |  |  |  |  |
| NCI-H1703 |  |  |  |  |  |  |  |  |  | 0.375 | 0.72 | 0.443 | 0.431 |  | 0.104 |  | 0.133 |
| NCI-H661 | 0.859 | 0.802 | 0.845 | 0.826 | 0.886 | 0.745 | 0.845 | 0.804 | 0.78 | 0.705 | 0.757 | 0.75 | 0.733 |  |  |  |  |
| NCI-H2009 | 0.617 | 0.703 | 0.683 | 0.703 | 0.632 | 0.754 | 0.693 | 0.8 | 0.728 | 0.683 | 0.749 | 0.648 | 0.728 |  |  |  |  |
| Calu-6 |  |  |  |  |  |  |  |  |  | 0.565 | 0.6 | 0.62 | 0.497 |  |  |  |  |
| COR-L23 | 0.51 | 0.486 | 0.479 | 0.417 | 0.212 | 0.455 | 0.56 | 0.631 | 0.447 | 0.287 | 0.344 | 0.323 | 0.406 |  |  |  |  |
| SW 1573 | 0.652 | 0.669 | 0.638 | 0.428 | 0.592 |  | 0.642 | 1.01 | 0.967 |  | 0.612 | 0.655 | 0.626 |  |  |  |  |
